Legend:
[1] = molecular target: T1, human Cytochrome P 450 1A2 (Homo sapiens, UniProt P05177); assay: Cytochrome P450 inhibition, isoenzyme 1A2; type: in vitro ADME; settings: baculovirus/insect cell-expressed human isoenzyme 1A2; read-out: Inhibition of the Cytochrome P450 Isoenzymes (IC50) 1A2
T1 construct: host or cells: baculovirus/insect cells
T1 sequence (P05177 1-516): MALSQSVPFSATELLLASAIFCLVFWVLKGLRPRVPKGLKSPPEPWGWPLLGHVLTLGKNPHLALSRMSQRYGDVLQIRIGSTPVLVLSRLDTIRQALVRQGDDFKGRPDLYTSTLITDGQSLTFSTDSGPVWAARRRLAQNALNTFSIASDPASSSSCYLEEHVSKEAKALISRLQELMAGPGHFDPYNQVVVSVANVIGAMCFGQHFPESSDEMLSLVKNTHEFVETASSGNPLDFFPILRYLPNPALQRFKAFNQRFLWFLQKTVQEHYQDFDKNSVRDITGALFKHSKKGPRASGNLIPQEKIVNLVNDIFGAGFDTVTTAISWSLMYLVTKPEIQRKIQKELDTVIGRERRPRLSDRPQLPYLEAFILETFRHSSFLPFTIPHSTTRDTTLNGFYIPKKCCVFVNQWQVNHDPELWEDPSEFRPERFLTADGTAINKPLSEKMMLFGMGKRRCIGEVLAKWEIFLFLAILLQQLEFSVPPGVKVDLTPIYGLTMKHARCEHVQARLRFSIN
Protocol: (§1) Cytochrome P450 Inhibition
(§2) The Cytochrome P450 inhibition was performed according to the publication of Crespi et al. (Anal. Biochem., 248, 188-190 (1997)) with use of baculovirus/insect cell-expressed, human Cytochrome P 450 isoenzymes (1A2, 2C9, 2C19, 2D6, 3A4).

[2] = molecular target: T2, human Cytochrome P 450 2C9 (Homo sapiens, UniProt P11712); assay: Cytochrome P450 inhibition, isoenzyme 2C9; type: in vitro ADME; settings: baculovirus/insect cell-expressed human isoenzyme 2C9; read-out: Inhibition of the Cytochrome P450 Isoenzymes (IC50) 2C9
T2 construct: host or cells: baculovirus/insect cells
Protocol: as §1, §2

[3] = molecular target: T3, human Cytochrome P 450 2D6 (Homo sapiens, UniProt P10635); assay: Cytochrome P450 inhibition, isoenzyme 2D6; type: in vitro ADME; settings: baculovirus/insect cell-expressed human isoenzyme 2D6; read-out: Inhibition of the Cytochrome P450 Isoenzymes (IC50) 2D6
T3 construct: host or cells: baculovirus/insect cells
Protocol: as §1, §2

[4] = molecular target: T4, human Cytochrome P 450 2C19 (Homo sapiens, UniProt P33261); assay: Cytochrome P450 inhibition, isoenzyme 2C19; type: in vitro ADME; settings: baculovirus/insect cell-expressed human isoenzyme 2C19; read-out: Inhibition of the Cytochrome P450 Isoenzymes (IC50) 2C19
T4 construct: host or cells: baculovirus/insect cells
Protocol: as §1, §2

[5] = molecular target: T5, human Cytochrome P 450 3A4 (Homo sapiens, UniProt P08684); assay: Cytochrome P450 inhibition, isoenzyme 3A4; type: in vitro ADME; settings: baculovirus/insect cell-expressed human isoenzyme 3A4; read-out: Inhibition of the Cytochrome P450 Isoenzymes (IC50) 3A4
T5 construct: host or cells: baculovirus/insect cells
Protocol: as §1, §2

VEGFR II (KDR) = VEGFR II (KDR) (Homo sapiens, UniProt P35968); assay: Inhibition of the KDR kinase activity; type: biochemical; settings: poly-(Glu4Tyr) substrate, 33P-ATP, 10 minutes at room temperature
Protocol: Solutions Required for the Tests
Stock solution A: 3 mmol of ATP in water, pH 7.0 (−70° C.)
Stock solution B: g-33P-ATP 1 mCi/100 μl
Stock solution C: poly-(Glu4Tyr) 10 mg/ml in water
Substrate solvent: 10 mmol of DTT, 10 mmol of manganese chloride, 100 mmol of magnesium chloride
Enzyme solution: 120 mmol of tris/HCl, pH 7.5, 10 μM of sodium vanadium oxide
Inhibition of the KDR- and FLT-1 Kinase Activity in the Presence of the Compounds According to the Invention
In a microtiter plate (without protein binding) that tapers to a point, 10 μl of substrate mix (10 μl of volume of ATP stock solution A +25 μCi of g-33P-ATP (about 2.5 μl of stock solution B)+30 μl of poly-(Glu4Tyr) stock solution C+1.21 ml of substrate solvent), 10 μl of inhibitor solution (substances corresponding to the dilutions, 3% DMSO in substrate solvent as a control) and 10 μl of enzyme solution (11.25 μg of enzyme stock solution (KDR or FLT-1 kinase) are added at 4° C. in 1.25 ml of enzyme solution (dilute). It is thoroughly mixed and incubated for 10 minutes at room temperature. Then, 10 μl of stop solution (250 mmol of EDTA, pH 7.0) is added, mixed, and 10 μl of the solution is transferred to a P 81 phosphocellulose filter. Then, it is washed several times in 0.1 M phosphoric acid. The filter paper is dried, coated with Meltilex and measured in a microbeta counter. […]

T5 sequence (P08684 whole entry): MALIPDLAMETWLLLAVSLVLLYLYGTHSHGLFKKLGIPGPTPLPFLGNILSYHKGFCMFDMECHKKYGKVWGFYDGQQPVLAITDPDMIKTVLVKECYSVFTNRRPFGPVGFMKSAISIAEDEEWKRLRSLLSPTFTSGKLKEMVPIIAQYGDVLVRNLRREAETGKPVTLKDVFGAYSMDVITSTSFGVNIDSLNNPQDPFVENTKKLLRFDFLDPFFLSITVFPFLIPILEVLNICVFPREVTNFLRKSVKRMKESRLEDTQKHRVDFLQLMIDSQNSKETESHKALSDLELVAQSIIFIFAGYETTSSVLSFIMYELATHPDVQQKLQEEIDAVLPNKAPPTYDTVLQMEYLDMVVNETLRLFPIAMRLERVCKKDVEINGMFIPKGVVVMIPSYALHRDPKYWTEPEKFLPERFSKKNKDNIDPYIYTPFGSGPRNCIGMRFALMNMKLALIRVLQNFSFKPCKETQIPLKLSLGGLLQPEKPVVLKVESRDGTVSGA
VEGFR II (KDR), sequence (P35968 20-1356, species assumed): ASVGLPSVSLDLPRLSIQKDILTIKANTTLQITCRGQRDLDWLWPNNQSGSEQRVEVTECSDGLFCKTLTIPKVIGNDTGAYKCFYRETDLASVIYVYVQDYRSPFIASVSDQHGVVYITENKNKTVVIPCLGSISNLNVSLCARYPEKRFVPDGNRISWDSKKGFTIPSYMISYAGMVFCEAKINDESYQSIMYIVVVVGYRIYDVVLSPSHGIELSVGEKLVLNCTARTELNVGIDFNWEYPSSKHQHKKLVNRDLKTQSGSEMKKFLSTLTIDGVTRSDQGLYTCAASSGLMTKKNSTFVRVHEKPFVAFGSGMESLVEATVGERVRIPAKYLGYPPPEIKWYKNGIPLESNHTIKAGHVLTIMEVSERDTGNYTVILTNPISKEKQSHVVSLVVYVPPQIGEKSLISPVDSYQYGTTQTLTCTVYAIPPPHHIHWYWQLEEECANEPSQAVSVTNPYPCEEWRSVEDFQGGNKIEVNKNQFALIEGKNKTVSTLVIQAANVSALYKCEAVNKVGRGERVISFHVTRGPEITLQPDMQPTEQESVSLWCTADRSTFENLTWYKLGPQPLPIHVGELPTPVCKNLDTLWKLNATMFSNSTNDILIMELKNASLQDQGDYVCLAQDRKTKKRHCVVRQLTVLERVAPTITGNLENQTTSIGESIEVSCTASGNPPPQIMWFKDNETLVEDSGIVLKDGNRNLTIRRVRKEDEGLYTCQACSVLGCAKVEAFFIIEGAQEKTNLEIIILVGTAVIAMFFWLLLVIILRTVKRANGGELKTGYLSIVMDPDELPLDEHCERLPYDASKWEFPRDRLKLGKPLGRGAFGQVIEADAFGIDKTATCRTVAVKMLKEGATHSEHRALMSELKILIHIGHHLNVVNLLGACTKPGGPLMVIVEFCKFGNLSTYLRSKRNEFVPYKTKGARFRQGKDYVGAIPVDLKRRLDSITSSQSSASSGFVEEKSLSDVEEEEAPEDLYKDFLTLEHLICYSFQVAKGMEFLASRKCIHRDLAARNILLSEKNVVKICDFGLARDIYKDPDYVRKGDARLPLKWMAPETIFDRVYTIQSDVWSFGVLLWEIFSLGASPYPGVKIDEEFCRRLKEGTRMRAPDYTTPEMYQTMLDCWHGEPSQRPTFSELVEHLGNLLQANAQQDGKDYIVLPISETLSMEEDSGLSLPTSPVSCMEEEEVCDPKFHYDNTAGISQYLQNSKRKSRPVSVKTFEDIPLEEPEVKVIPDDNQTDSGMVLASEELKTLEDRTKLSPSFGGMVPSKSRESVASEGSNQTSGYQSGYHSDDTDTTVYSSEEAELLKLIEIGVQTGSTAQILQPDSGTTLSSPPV
T4 sequence (P33261 whole entry): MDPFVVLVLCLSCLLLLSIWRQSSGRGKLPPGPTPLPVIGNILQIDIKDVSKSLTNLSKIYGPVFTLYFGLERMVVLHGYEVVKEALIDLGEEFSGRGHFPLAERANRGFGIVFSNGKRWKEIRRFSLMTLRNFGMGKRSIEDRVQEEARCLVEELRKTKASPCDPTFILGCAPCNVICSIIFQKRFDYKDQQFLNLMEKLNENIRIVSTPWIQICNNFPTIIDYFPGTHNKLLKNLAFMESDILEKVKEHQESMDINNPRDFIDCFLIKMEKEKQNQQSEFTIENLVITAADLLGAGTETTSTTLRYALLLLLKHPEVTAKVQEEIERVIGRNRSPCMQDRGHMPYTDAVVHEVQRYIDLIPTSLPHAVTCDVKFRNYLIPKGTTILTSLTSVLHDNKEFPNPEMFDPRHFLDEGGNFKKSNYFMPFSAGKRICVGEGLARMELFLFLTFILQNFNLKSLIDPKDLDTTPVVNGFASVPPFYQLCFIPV
T3 sequence (P10635 whole entry): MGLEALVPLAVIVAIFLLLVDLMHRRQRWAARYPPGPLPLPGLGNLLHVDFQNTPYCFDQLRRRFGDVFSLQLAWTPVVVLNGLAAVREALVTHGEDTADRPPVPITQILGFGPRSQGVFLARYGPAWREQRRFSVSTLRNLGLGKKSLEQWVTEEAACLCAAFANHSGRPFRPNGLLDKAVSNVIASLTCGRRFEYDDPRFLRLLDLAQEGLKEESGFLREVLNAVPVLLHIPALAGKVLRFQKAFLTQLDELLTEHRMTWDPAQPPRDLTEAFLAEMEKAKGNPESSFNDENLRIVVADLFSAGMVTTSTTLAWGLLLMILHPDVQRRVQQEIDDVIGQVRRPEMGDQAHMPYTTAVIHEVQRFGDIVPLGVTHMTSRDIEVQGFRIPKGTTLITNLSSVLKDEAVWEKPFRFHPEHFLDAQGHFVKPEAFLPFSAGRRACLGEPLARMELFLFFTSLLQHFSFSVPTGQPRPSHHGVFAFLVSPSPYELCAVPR
T2 sequence (P11712 whole entry): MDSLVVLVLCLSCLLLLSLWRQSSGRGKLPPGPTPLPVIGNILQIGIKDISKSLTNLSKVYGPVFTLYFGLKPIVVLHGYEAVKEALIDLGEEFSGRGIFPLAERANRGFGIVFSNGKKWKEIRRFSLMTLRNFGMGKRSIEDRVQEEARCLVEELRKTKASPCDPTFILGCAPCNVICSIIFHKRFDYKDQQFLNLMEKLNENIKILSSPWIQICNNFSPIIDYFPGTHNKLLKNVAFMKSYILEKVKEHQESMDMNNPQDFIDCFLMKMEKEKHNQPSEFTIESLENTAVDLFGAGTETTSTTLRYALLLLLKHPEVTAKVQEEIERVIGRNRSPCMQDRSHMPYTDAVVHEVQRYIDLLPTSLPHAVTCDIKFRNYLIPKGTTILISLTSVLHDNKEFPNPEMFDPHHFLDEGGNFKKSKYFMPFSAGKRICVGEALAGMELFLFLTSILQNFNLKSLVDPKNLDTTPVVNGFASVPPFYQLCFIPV

O=C1Cc2ccc(NC(=O)c3ccccc3NCc3ccc(=O)[nH]c3)cc2N1 [Example 1.0, N-(2-Oxo-2,3-dihydro-1H-indol-6-yl)-2-[(6-oxo-1,6-dihydro-pyridin-3-ylmethyl)-amino]-benzamide]
IC50 [1]: > 30 µM | IC50 [2]: 23 µM | IC50 [3]: > 30 µM | IC50 [4]: > 30 µM | IC50 [5]: > 30 µM | IC50 (VEGFR II (KDR)): 0.05 µM

— patent US20040039019A1, “Selected anthranilaminde pyridinamides and their use as pharmaceutical agents” (Schering AG, priority 2002, published 2004)
